Reference: patent publication US5096907A, “Antibiotic LL-E19085” (American Cyanamid Company, priority 1991, dated 1992)
Converted amounts (≈) assume the structure as drawn. Read-outs that look alike come from different tables or passages of the source.

Experiments:
Assay in all cases: In vitro antibacterial activity, agar dilution
Format in all cases: cell-based
[1] = system: Streptococcus b-hemolyticus; conditions: strain AMCH 88-86, Mueller-Hinton agar, read-out: Minimal Inhibitory Concentration
Procedure: (§1) The in vitro antibacterial effects of antibiotics LL-E19085α, LL-E19085β, LL-E19085γ, LL-E19085.zeta. and LL-E19085.eta. were determined by standard agar dilution methods against clinical isolates obtained from medical centers representing various geographical areas in the United States. The inoculum of each culture was approximately 1 to 5×10^4 colony forming units applied with a Steers multiple inocula replicator to plates containing the antibiotic in Mueller-Hinton agar. The agar was supplemented with about 5% sheep blood where required for the growth of the organism.

[2] = system: Streptococcus a-hemolyticus; conditions: strain AMCH 88-84, Mueller-Hinton agar, read-out: Minimal Inhibitory Concentration
Procedure: as §1

Enterococcus Grp D = conditions: strain WRVA 88-33, Mueller-Hinton agar, read-out: Minimal Inhibitory Concentration
Procedure: as §1

[3] = system: Staphylococcus hemolyticus; conditions: read-out: Minimal Inhibitory Concentration
Procedure: as §1

Streptococcus pneumoniae = conditions: read-out: Minimal Inhibitory Concentration
Procedure: as §1

Klebsiella pneumoniae = conditions: read-out: Minimal Inhibitory Concentration
Procedure: as §1

Bacteroides cereus = conditions: read-out: Minimal Inhibitory Concentration
Procedure: as §1

Staphylococcus aureus = conditions: read-out: Minimal Inhibitory Concentration
Procedure: as §1

Streptococcus faecalis = conditions: Enterococcus faecalis, Mueller-Hinton agar, read-out: Minimal Inhibitory Concentration
Procedure: as §1

Escherichia coli = system: Escherichia coli
Procedure: as §1

Enterococcus = conditions: read-out: Minimal Inhibitory Concentration
Procedure: as §1

Proteus vulgaris = conditions: strain CMC 84-35, Mueller-Hinton agar, read-out: Minimal Inhibitory Concentration
Procedure: as §1

Bacteroides fragilis = conditions: ATCC25285, strain ATCC 25285, Mueller-Hinton agar, read-out: Minimal Inhibitory Concentration
Procedure: as §1

Peptococcus asacrolytis = conditions: strain ATCC 29743; Mueller-Hinton agar; read-out: Minimal Inhibitory Concentration
Procedure: as §1

erratia rubidea = conditions: strain UHL 86-4; Mueller-Hinton agar; read-out: Minimal Inhibitory Concentration
Procedure: as §1

Bacteroides vulgaris = conditions: ATCC29327, strain ATCC 29327, Mueller-Hinton agar, read-out: Minimal Inhibitory Concentration
Procedure: as §1

Clostridium differensis = conditions: ATCC17858, strain ATCC 17858, Mueller-Hinton agar, read-out: Minimal Inhibitory Concentration
Procedure: as §1

Bacteroides theta = conditions: read-out: Minimal Inhibitory Concentration
Procedure: as §1

[4] = system: Streptococcus β-hemolyticus; conditions: Mueller-Hinton agar
Procedure: as §1

Alcaligenes ssp. = conditions: strain ISG 86-34, Mueller-Hinton agar, read-out: Minimal Inhibitory Concentration
Procedure: as §1

Citrobacter diversis = conditions: strain MOR 84-3, Mueller-Hinton agar, read-out: Minimal Inhibitory Concentration
Procedure: as §1

[5] = system: Staphylococcus epidermidis; conditions: strain IO 83-58, Mueller-Hinton agar, read-out: Minimal Inhibitory Concentration
Procedure: as §1

[6] = system: Staphylococcus saphrophiticus; conditions: strain VGH 84-50, Mueller-Hinton agar, read-out: Minimal Inhibitory Concentration
Procedure: as §1

Peptococcus magnus = conditions: Finegoldia magna, Mueller-Hinton agar, read-out: Minimal Inhibitory Concentration
Procedure: as §1

Serratia marcescens = conditions: strain K 84-14, Mueller-Hinton agar, read-out: Minimal Inhibitory Concentration
Procedure: as §1

Morganella morganii = conditions: strain VGH 84-11, Mueller-Hinton agar, read-out: Minimal Inhibitory Concentration
Procedure: as §1

Clostridium perfringen = conditions: ATCC13124, strain ATCC 13124, Mueller-Hinton agar, read-out: Minimal Inhibitory Concentration
Procedure: as §1

Enterobacter cloacae = conditions: strain VGH 84-37, Mueller-Hinton agar, read-out: Minimal Inhibitory Concentration
Procedure: as §1

Pseudomonas aeruginosa = conditions: strain 12-4-4, Mueller-Hinton agar, read-out: Minimal Inhibitory Concentration
Procedure: as §1

[7] = ATCC25923, strain ATCC 25923, Mueller-Hinton agar
[8] = ATCC29213, strain ATCC 29213, Mueller-Hinton agar
[9] = strain CMC 83-131, Mueller-Hinton agar
[10] = ATCC25922, strain ATCC 25922, Mueller-Hinton agar, read-out: Minimal Inhibitory Concentration

Structure (SMILES): COc1cc2oc3c(c(=O)c2cc1OC)C(=O)c1c(ccc2cc4c(c(O)c12)C(=O)N1C(C)(C4)OC(=O)C1(C)COC(=O)C(C)C)C3=O (stereo not drawn) [LL-E19085β]
- MIC [1]: 2 µg/mL (≈ 3.05 µM)
- MIC [2]: 0.5 µg/mL (≈ 0.763 µM)
- MIC (Enterococcus Grp D): 2 µg/mL (≈ 3.05 µM)
- MIC ([3]; strain AVAH 88-1, Mueller-Hinton agar): 2 µg/mL (≈ 3.05 µM)
- MIC ([3]; strain AVAH 88-3, Mueller-Hinton agar): 4 µg/mL (≈ 6.1 µM)
- MIC (Streptococcus pneumoniae; strain CHBB 88-75, Mueller-Hinton agar): 0.12 µg/mL (≈ 0.183 µM)
- MIC (Streptococcus pneumoniae; strain CHBM 88-70, Mueller-Hinton agar): 0.25 µg/mL (≈ 0.381 µM)
- MIC (Streptococcus pneumoniae; strain TEX 85-2, Mueller-Hinton agar): 0.12 µg/mL (≈ 0.183 µM)
- MIC (Klebsiella pneumoniae; strain NEMC 87-271, Mueller-Hinton agar): ≥ 64 µg/mL
- MIC (Bacteroides cereus): 2 µg/mL (≈ 3.05 µM)
- MIC (Staphylococcus aureus; [7]): 0.5 µg/mL (≈ 0.763 µM)
- MIC (Staphylococcus aureus; [8]): 2 µg/mL (≈ 3.05 µM)
- MIC (Staphylococcus aureus; [9]): 4 µg/mL (≈ 6.1 µM)
- MIC (Staphylococcus aureus; strain IVES 542, Mueller-Hinton agar): 4 µg/mL (≈ 6.1 µM)
- MIC (Staphylococcus aureus; strain K82-26, Mueller-Hinton agar): 2 µg/mL (≈ 3.05 µM)
- MIC (Staphylococcus aureus; strain NEMC 87-69, Mueller-Hinton agar): 4 µg/mL (≈ 6.1 µM)
- MIC (Staphylococcus aureus; strain ROSE (MP), Mueller-Hinton agar): 2 µg/mL (≈ 3.05 µM)
- MIC (Staphylococcus aureus; strain VGH 84-47, Mueller-Hinton agar): 4 µg/mL (≈ 6.1 µM)
- MIC (Streptococcus faecalis; strain ARUM 87-41): 2 µg/mL (≈ 3.05 µM)
- MIC (Streptococcus faecalis; strain CMC 83-120): 2 µg/mL (≈ 3.05 µM)
- MIC (Streptococcus faecalis; strain VCH 84-69): 2 µg/mL (≈ 3.05 µM)
- MIC (Streptococcus faecalis; strain VCI 85-30): 2 µg/mL (≈ 3.05 µM)
- MIC (Escherichia coli; [10]): > 64 µg/mL
- MIC (Escherichia coli; ATCC35218, strain ATCC 35218, Mueller-Hinton agar, read-out: Minimal Inhibitory Concentration): > 64 µg/mL
- MIC (Escherichia coli; read-out: Minimal Inhibitory Concentration, strain D21, Mueller-Hinton agar): ≥ 64 µg/mL
- MIC (Escherichia coli; strain D22, Mueller-Hinton agar, read-out: Minimal Inhibitory Concentration): 8 µg/mL (≈ 12.2 µM)
- MIC (Enterococcus; strain CHBM 88-60, Mueller-Hinton agar): 2 µg/mL (≈ 3.05 µM)

Structure (SMILES): COc1cc2oc3c(c(=O)c2cc1OC)C(=O)c1c(ccc2cc4c(c(O)c12)C(=O)N1C(C)(C4)OC(=O)C1(C)COC(=O)CC(C)C)C3=O (stereo not drawn) [LL-E19085α]
- MIC (Proteus vulgaris): > 128 µg/mL
- MIC (Bacteroides fragilis): 16 µg/mL (≈ 23.9 µM)
- MIC (Peptococcus asacrolytis): ≤ 0.06 µg/mL
- MIC (erratia rubidea): > 128 µg/mL
- MIC (Bacteroides vulgaris): ≤ 0.06 µg/mL
- MIC (Clostridium differensis): ≤ 0.06 µg/mL
- MIC (Streptococcus pneumoniae; strain K 84-21, Mueller-Hinton agar): ≤ 0.06 µg/mL
- MIC (Streptococcus pneumoniae; strain SV-1, Mueller-Hinton agar): ≤ 0.06 µg/mL
- MIC (Bacteroides theta; ATCC29741, strain ATCC 29741, Mueller-Hinton agar): 4 µg/mL (≈ 5.97 µM)
- MIC (Bacteroides theta; ATCC29742, strain ATCC 29742, Mueller-Hinton agar): 4 µg/mL (≈ 5.97 µM)
- MIC ([4]; Streptococcus, strain C 203, read-out: Minimal Inhibitory Concentration): ≤ 0.06 µg/mL
- Minimal Inhibitory Concentration ([4]; strain VGH 84-60): ≤ 0.06 µg/mL
- Minimal Inhibitory Concentration ([4]; strain VGH 84-61): ≤ 0.06 µg/mL
- Minimal Inhibitory Concentration ([4]; strain VGH 84-62): ≤ 0.06 µg/mL
- MIC (Alcaligenes ssp.): > 128 µg/mL
- MIC (Citrobacter diversis): > 128 µg/mL
- MIC (Klebsiella pneumoniae; strain AD, Mueller-Hinton agar): > 128 µg/mL
- MIC [5]: ≤ 0.06 µg/mL
- MIC [6]: ≤ 0.06 µg/mL
- MIC (Peptococcus magnus; ATCC14956, strain ATCC 14956): ≤ 0.06 µg/mL
- MIC (Peptococcus magnus; ATCC29328, strain ATCC 29328): ≤ 0.06 µg/mL
- MIC (Staphylococcus aureus; [7]): 0.12 µg/mL (≈ 0.179 µM)
- MIC (Staphylococcus aureus; [8]): ≤ 0.06 µg/mL
- MIC (Staphylococcus aureus; strain CMC 83-127, Mueller-Hinton agar): ≤ 0.06 µg/mL
- MIC (Staphylococcus aureus; [9]): ≤ 0.06 µg/mL
- MIC (Staphylococcus aureus; strain CMC 83-132, Mueller-Hinton agar): ≤ 0.06 µg/mL
- MIC (Staphylococcus aureus; strain SSC 82-57, Mueller-Hinton agar): ≤ 0.06 µg/mL
- MIC (Staphylococcus aureus; strain Smith, Mueller-Hinton agar): 0.12 µg/mL (≈ 0.179 µM)
- MIC (Staphylococcus aureus; strain VGH 84-45, Mueller-Hinton agar): ≤ 0.06 µg/mL
- MIC (Serratia marcescens): > 128 µg/mL
- MIC (Escherichia coli; [10]): > 128 µg/mL
- MIC (Escherichia coli; strain No. 311, Mueller-Hinton agar, read-out: Minimal Inhibitory Concentration): > 128 µg/mL
- MIC (Morganella morganii): > 128 µg/mL
- MIC (Clostridium perfringen): ≤ 0.06 µg/mL
- MIC (Enterococcus; strain CMC 83-72, Mueller-Hinton agar): ≤ 0.06 µg/mL
- MIC (Enterococcus; strain IO 83-28, Mueller-Hinton agar): ≤ 0.06 µg/mL
- MIC (Enterococcus; strain IO 83-40, Mueller-Hinton agar): 0.12 µg/mL (≈ 0.179 µM)
- MIC (Enterococcus; strain VGH 84-65, Mueller-Hinton agar): ≤ 0.06 µg/mL
- MIC (Enterococcus; strain VGH 84-68, Mueller-Hinton agar): ≤ 0.06 µg/mL
- MIC (Enterobacter cloacae): > 128 µg/mL
- MIC (Pseudomonas aeruginosa): > 128 µg/mL
